{
  "source": "paper PMC9016025",
  "about": "“Translational imaging of the fibroblast activation protein (FAP) using the new ligand [^68Ga]Ga-OncoFAP-DOTAGA” (European Journal of Nuclear Medicine and Molecular Imaging, 2021)",
  "key": {"[1]": {"system": "subcutaneous HT1080 (FAP−) and HT1080-hFAP (FAP+) tumors", "assay": "Dynamic and late static small animal PET/MRI in tumor-bearing mice", "assay_type": "in vivo, mouse", "experimental": "Tumor cells (10^6 cells in 50 μL saline) were implanted subcutaneously in the shoulders of NMRI mice with HT1080 wildtype (FAP^−) in one shoulder and with stably transfected human FAP-expressing HT1080 cells (FAP^+) in the contralateral shoulder. Cells were kindly provided by U. Haberkorn, University of Heidelberg. At day 11 after implantation, mice received whole-body PET/MRI (1 T Mediso nanoScan) imaging with list mode PET for 60 min and additional non-contrast-enhanced anatomic, coronal T1-weighted MRI, followed by late static PET/MRI imaging 180 min p.i. Either ^68Ga-OncoFAP or ^68Ga-FAPI-46 (n = 6 each) was injected into the tail vein with a syringe pump at 1000 μL/min in a volume of 100 μL 30 s after the start of PET. At the next day (day 12 after implantation), the same mice were injected with the respective other FAP-tracer and received identical dynamic PET/MRI for 60 min. Sixty minutes p.i., mice were sacrificed under deep narcosis and organs and body fluids were harvested, weighed, and γ-counted. All involved measuring hardware (dose calibrator ISOMED 2010, automatic γ-counter PERKIN ELMER WALAC 2480, Twilite coincidence detector Swisstrace, PET/MRI) were cross-calibrated for ^68Ga. Overall, 3 scans were rejected, because of extravasation (day 11 OncoFAP), inability of i.v. access (day 12 FAPI-46), and insufficient radioactivity (day 12 FAPI-46), respectively. The resulting injected amounts of radioactivity for the remaining 11 ^68Ga-OncoFAP scans and 10 ^68Ga-FAPI-46 scans were 19.2 ± 4.4 MBq and 18.2 ± 4.8 MBq, respectively.\nDynamic PET scans were reconstructed in time frames of 1 × 30 s, 5 × 12 s, 5 × 60 s, 4 × 300 s, 2 × 600 s, and 1 × 810 s. Frames 12 and 18 and the late scan are referred to as (rounded) 10 min, 1 h, and 3 h throughout the manuscript. Volume of interests (VOI) of tumors and representative organs were defined on anatomic MRI. Resulting tumor volumes for ^68Ga-OncoFAP scans for FAP^+ and FAP^− tumors were 0.4 ± 0.36 and 0.22 ± 0.15, and for FAPI-46 scans were 0.34 ± 0.20 and 0.2 ± 0.17 (n.s. different between the two tracers)."}, "[2]": {"system": "subcutaneous HT1080 (FAP−) and HT1080-hFAP (FAP+) tumors", "assay": "Pharmacokinetic modeling (2TCM, Patlak) of small animal PET with extracorporeal arterial input function", "assay_type": "in vivo, mouse", "set-up": "Vs (distribution volume) / k1 / k2 / k3 / k4: unit not given here", "details": "geometric mean ± SD; for Vs (distribution volume) / k1 / k2 / k3 / k3/k4 / k4: 2TCM", "experimental": "Before PET/MRI at day 12, p.i. mice received surgery to establish an extracorporeal circulation shunting of the blood from the femoral artery to the tail vein or contralateral femoral vein as described previously. At 40 cm from the femoral artery, the shunt (0.3 mm inner diameter silicon; total extracorporeal volume 56.6 μL) was led through a Twilite coincidence detector. Acquired blood activity curves were calibrated with a separately measured calibration factor for ^68Ga according to vendor’s instructions. The curves were corrected for delay and dispersion based on a numerical deconvolution, using dispersion kernels derived from measuring step functions at defined pumping speeds. Standard 2-tissue compartmental (2TCM) pharmacokinetic (PK) modeling and Patlak analysis was performed for the triceps muscle, and FAP^− and FAP^+ tumors using PMOD version 3.703 (PMOD Technologies LLC) and was based on mean PET VOI time activity curves and Twilite-based extracorporeal arterial input functions (AIF). AIF plasma fraction was calculated based on direct hematocrit measurements after imaging (StatStrip® Hb/Hct, Nova Biomedical)."}, "[3]": {"system": "patients with breast cancer", "set-up": "method as in PMID 34636633", "details": "previously published patient sample, cited from earlier work"}},
  "note": "Like-named read-outs stand apart in the source and are kept apart here.",
  "data": [
    {"smiles": "CN(CCCN1CCN(C(=O)CN2CCN(CC(=O)[O-])CCN(CC(=O)[O-])CCN(CC(=O)[O-])CC2)CC1)c1ccc2nccc(C(=O)NCC(=O)N3CC(F)(F)C[C@H]3C#N)c2c1.[68Ga+3]", "note": "[^68Ga-FAPI-46, [^68Ga]Ga-FAPI-46]", "values": [
      {"measurement": "SUVmean blood", "setting": "[1]; small animal PET 10 min p.i.", "value": "0.52 ± 0.09"},
      {"measurement": "SUVmean kidney", "setting": "[1]; small animal PET 10 min p.i.", "value": "1.43 ± 0.88"},
      {"measurement": "SUVmean liver", "setting": "[1]; small animal PET 10 min p.i.", "value": "0.57 ± 0.17"},
      {"measurement": "SUVmean muscle", "setting": "[1]; small animal PET 10 min p.i.", "value": "0.35 ± 0.07"},
      {"measurement": "SUVmean spleen", "setting": "[1]; small animal PET 10 min p.i.", "value": "0.40 ± 0.19"},
      {"measurement": "SUVmean tumor FAP+", "setting": "[1]; small animal PET 10 min p.i.", "value": "0.40 ± 0.07"},
      {"measurement": "SUVmean tumor FAP-", "setting": "[1]; small animal PET 10 min p.i.", "value": "0.39 ± 0.07"},
      {"measurement": "SUVmean blood", "setting": "[1]; small animal PET 1 h p.i.", "value": "0.19 ± 0.07"},
      {"measurement": "SUVmean kidney", "setting": "[1]; small animal PET 1 h p.i.", "value": "0.54 ± 0.54"},
      {"measurement": "SUVmean liver", "setting": "[1]; small animal PET 1 h p.i.", "value": "0.28 ± 0.16"},
      {"measurement": "SUVmean muscle", "setting": "[1]; small animal PET 1 h p.i.", "value": "0.08 ± 0.04"},
      {"measurement": "SUVmean spleen", "setting": "[1]; small animal PET 1 h p.i.", "value": "0.15 ± 0.07"},
      {"measurement": "SUVmean tumor FAP+", "setting": "[1]; small animal PET 1 h p.i.", "value": "0.25 ± 0.06"},
      {"measurement": "SUVmean tumor FAP-", "setting": "[1]; small animal PET 1 h p.i.", "value": "0.10 ± 0.05"},
      {"measurement": "SUVmean kidney", "setting": "[1]; small animal PET 3 h p.i.", "value": "0.07 ± 0.02"},
      {"measurement": "SUVmean liver", "setting": "[1]; small animal PET 3 h p.i.", "value": "0.28 ± 0.19"},
      {"measurement": "SUVmean muscle", "setting": "[1]; small animal PET 3 h p.i.", "value": "0.02 ± 0.00"},
      {"measurement": "SUVmean spleen", "setting": "[1]; small animal PET 3 h p.i.", "value": "0.09 ± 0.06"},
      {"measurement": "SUVmean tumor FAP+", "setting": "[1]; small animal PET 3 h p.i.", "value": "0.16 ± 0.06"},
      {"measurement": "SUVmean tumor FAP-", "setting": "[1]; small animal PET 3 h p.i.", "value": "0.02 ± 0.01"},
      {"measurement": "Vs (distribution volume)", "setting": "[2]; tumor FAP+", "value": "0.25 ± 0.29"},
      {"measurement": "k1", "setting": "[2]; tumor FAP+", "value": "0.042 ± 0.012"},
      {"measurement": "k2", "setting": "[2]; tumor FAP+", "value": "0.298 ± 0.038"},
      {"measurement": "k3", "setting": "[2]; tumor FAP+", "value": "0.029 ± 0.024"},
      {"measurement": "k3/k4", "setting": "[2]; tumor FAP+", "value": "1.77 ± 2.74"},
      {"measurement": "k4", "setting": "[2]; tumor FAP+", "value": "0.017 ± 0.011"},
      {"measurement": "Vs (distribution volume)", "setting": "[2]; tumor FAP+, listed as FAPI-46", "value": "0.246 ± 0.287"},
      {"measurement": "k3/k4", "setting": "[2]; tumor FAP+, listed as FAPI-46", "value": "1.770 ± 2.737"},
      {"measurement": "Vs (distribution volume)", "setting": "[2]; tumor FAP−", "value": "0.121 ± 0.227"},
      {"measurement": "k1", "setting": "[2]; tumor FAP−", "value": "0.049 ± 0.003"},
      {"measurement": "k2", "setting": "[2]; tumor FAP−", "value": "0.323 ± 0.115"},
      {"measurement": "k3", "setting": "[2]; tumor FAP−", "value": "0.012 ± 0.031"},
      {"measurement": "k3/k4", "setting": "[2]; tumor FAP−", "value": "0.801 ± 0.908"},
      {"measurement": "k4", "setting": "[2]; tumor FAP−", "value": "0.015 ± 0.038"},
      {"measurement": "Patlak intercept", "setting": "[2]; tumor FAP+", "value": "0.176 ± 0.035"},
      {"measurement": "Patlak slope", "setting": "[2]; tumor FAP+", "value": "0.002 ± 0.001"},
      {"measurement": "Patlak intercept", "setting": "[2]; tumor FAP−", "value": "0.207 ± 0.019"},
      {"measurement": "Patlak slope", "setting": "[2]; tumor FAP−", "value": "0.000 ± 0.000"},
      {"measurement": "Blood (prone SUVmean)", "setting": "[3]", "value": "1.7 ± 0.2"},
      {"measurement": "Blood (supine SUVmean)", "setting": "[3]", "value": "1.3 ± 0.3"},
      {"measurement": "Bone (supine SUVmean)", "setting": "[3]", "value": "0.4 ± 0.1"},
      {"measurement": "Breast cancer LN metastasis (supine SUVmax)", "setting": "[3]", "value": "12.2 ± 6.2 (n = 13)"},
      {"measurement": "Distant metastases any cancer (supine SUVmax)", "setting": "[3]", "value": "12.3 ± 0.2 (n = 2)"},
      {"measurement": "Kidney (supine SUVmean)", "setting": "[3]", "value": "1.5 ± 0.4"},
      {"measurement": "Liver (supine SUVmean)", "setting": "[3]", "value": "0.9 ± 0.3"},
      {"measurement": "Muscle (supine SUVmean)", "setting": "[3]", "value": "1.1 ± 0.2"},
      {"measurement": "Pancreas (supine SUVmean)", "setting": "[3]", "value": "1.1 ± 0.4"},
      {"measurement": "Primary breast cancer (prone SUVmax)", "setting": "[3]", "value": "14.0 ± 5.7 (n = 17)"},
      {"measurement": "Spleen (supine SUVmean)", "setting": "[3]", "value": "1.1 ± 0.8"},
      {"measurement": "Uterus (supine SUVmax)", "setting": "[3]", "value": "11.6 ± 4.5 (n = 18)"},
      {"measurement": "Uterus (supine SUVmax)", "setting": "[3]; listed as FAPI-46", "value": "11.6 ± 4.5"}
    ]}
  ]
}
